# Data published in ChEMBL document CHEMBL4477257, “In vitro cytotoxicity of novel 2,5,7-tricarbo-substituted indoles derived from 2-amino-5-bromo-3-iodoacetophenone” (2016).
# Calls of active or inactive are those of the source. The rule behind the calls is not given here.
# Tested on: HeLa
# Assay: Induction of apoptosis in human HeLa cells assessed as viable cells at 2.5 uM after 48 hrs by Annexin V/propidium iodide staining based flow cytometric analysis (reference value: 46.00 +/- 0.56 %)
# Assay type: functional
# Settings: read-out: Activity
row,SMILES,viability at 2.5 µM
1,CC(=O)c1cc(/C=C/c2ccc(F)cc2)cc2cc(-c3ccc(F)cc3)[nH]c12,52.4%

# Tested on: MCF7
# Assay: Cytotoxicity against human MCF7 cells assessed as cell viability at 1 uM after 2 days by MTT assay relative to control
# Assay type: functional
# Settings: MCF7, 48 h, read-out: Activity
row,SMILES,viability at 1 µM
1,COc1ccc(-c2cc3cc(-c4ccccc4)cc(C(C)=O)c3[nH]2)cc1,78.1%
2,COc1ccc(-c2cc3cc(-c4ccc(F)cc4)cc(C(C)=O)c3[nH]2)cc1,96.4%
3,COc1ccc(-c2cc(C(C)=O)c3[nH]c(-c4ccc(F)cc4)cc3c2)cc1,69.7%
4,CC(=O)c1cc(-c2ccccc2)cc2cc(-c3ccc(F)cc3)[nH]c12,96.8%
5,CC(=O)c1cc(-c2ccc(F)cc2)cc2cc(-c3ccc(F)cc3)[nH]c12,93.2%
6,CC(=O)c1cc(/C=C/c2ccc(F)cc2)cc2cc(-c3ccc(F)cc3)[nH]c12,82%

# Tested on: HeLa
# Assay: Induction of apoptosis in human HeLa cells assessed as necrotic cells at 10 uM after 48 hrs by Annexin V/propidium iodide staining based flow cytometric analysis (reference value: 21.45 +/- 0.78 %)
# Assay type: functional
# Settings: not given
row,SMILES,Activity
1,CC(=O)c1cc(/C=C/c2ccc(F)cc2)cc2cc(-c3ccc(F)cc3)[nH]c12,64.1%

# Tested on: MCF7
# Assay: Cytotoxicity against human MCF7 cells assessed as cell viability at 10 uM after 2 days by MTT assay relative to control
# Assay type: functional
# Settings: MCF7, 48 h, read-out: Activity
row,SMILES,viability at 10 µM
1,COc1ccc(-c2cc3cc(-c4ccccc4)cc(C(C)=O)c3[nH]2)cc1,64.5%
2,COc1ccc(-c2cc3cc(-c4ccc(F)cc4)cc(C(C)=O)c3[nH]2)cc1,77.5%
3,COc1ccc(-c2cc(C(C)=O)c3[nH]c(-c4ccc(F)cc4)cc3c2)cc1,52.9%
4,CC(=O)c1cc(-c2ccccc2)cc2cc(-c3ccc(F)cc3)[nH]c12,91.9%
5,CC(=O)c1cc(-c2ccc(F)cc2)cc2cc(-c3ccc(F)cc3)[nH]c12,90.6%
6,CC(=O)c1cc(/C=C/c2ccc(F)cc2)cc2cc(-c3ccc(F)cc3)[nH]c12,67.4%

# Tested on: HeLa
# Assay: Induction of apoptosis in human HeLa cells assessed as late apoptotic cells at 2.5 uM after 48 hrs by Annexin V/propidium iodide staining based flow cytometric analysis (reference value: 31.80 +/- 0.25 %)
# Assay type: functional
# Settings: not given
row,SMILES,Activity
1,CC(=O)c1cc(/C=C/c2ccc(F)cc2)cc2cc(-c3ccc(F)cc3)[nH]c12,33.5%

# Tested on: HeLa
# Assay: Cytotoxicity against human HeLa cells assessed as reduction in cell viability after 2 days by MTT assay
# Assay type: functional
# Settings: 48 h, read-out: LC50 (the source's name)
row,SMILES,CC50
1,COc1ccc(-c2cc3cc(-c4ccccc4)cc(C(C)=O)c3[nH]2)cc1,18.9 µM
2,COc1ccc(-c2cc3cc(-c4ccc(F)cc4)cc(C(C)=O)c3[nH]2)cc1,42.8 µM
3,COc1ccc(-c2cc(C(C)=O)c3[nH]c(-c4ccc(F)cc4)cc3c2)cc1,9.46 µM
4,CC(=O)c1cc(-c2ccccc2)cc2cc(-c3ccc(F)cc3)[nH]c12,> 100 µM
5,CC(=O)c1cc(-c2ccc(F)cc2)cc2cc(-c3ccc(F)cc3)[nH]c12,13.8 µM
6,CC(=O)c1cc(/C=C/c2ccc(F)cc2)cc2cc(-c3ccc(F)cc3)[nH]c12,5.68 µM

# Tested on: HeLa
# Assay: Induction of apoptosis in human HeLa cells assessed as early apoptotic cells at 5 uM after 48 hrs by Annexin V/propidium iodide staining based flow cytometric analysis (reference value: 0.05 +/- 0.07 %)
# Assay type: functional
# Settings: not given
row,SMILES,Activity
1,CC(=O)c1cc(/C=C/c2ccc(F)cc2)cc2cc(-c3ccc(F)cc3)[nH]c12,0.5%

# Tested on: MCF7
# Assay: Cytotoxicity against human MCF7 cells assessed as reduction in cell viability after 2 days by MTT assay
# Assay type: functional
# Settings: MCF7, 48 h, read-out: LC50 (the source's name)
row,SMILES,CC50
1,COc1ccc(-c2cc3cc(-c4ccccc4)cc(C(C)=O)c3[nH]2)cc1,> 100 µM
2,COc1ccc(-c2cc3cc(-c4ccc(F)cc4)cc(C(C)=O)c3[nH]2)cc1,> 100 µM
3,COc1ccc(-c2cc(C(C)=O)c3[nH]c(-c4ccc(F)cc4)cc3c2)cc1,16.8 µM
4,CC(=O)c1cc(-c2ccccc2)cc2cc(-c3ccc(F)cc3)[nH]c12,> 100 µM
5,CC(=O)c1cc(-c2ccc(F)cc2)cc2cc(-c3ccc(F)cc3)[nH]c12,87.4 µM
6,CC(=O)c1cc(/C=C/c2ccc(F)cc2)cc2cc(-c3ccc(F)cc3)[nH]c12,> 100 µM

# Tested on: HeLa
# Assay: Cytotoxicity against human HeLa cells assessed as cell viability at 0.1 uM after 2 days by MTT assay relative to control
# Assay type: functional
# Settings: 48 h, read-out: Activity
row,SMILES,viability at 0.1 µM
1,COc1ccc(-c2cc3cc(-c4ccccc4)cc(C(C)=O)c3[nH]2)cc1,80.5%
2,COc1ccc(-c2cc3cc(-c4ccc(F)cc4)cc(C(C)=O)c3[nH]2)cc1,81%
3,COc1ccc(-c2cc(C(C)=O)c3[nH]c(-c4ccc(F)cc4)cc3c2)cc1,74.5%
4,CC(=O)c1cc(-c2ccccc2)cc2cc(-c3ccc(F)cc3)[nH]c12,91.1%
5,CC(=O)c1cc(-c2ccc(F)cc2)cc2cc(-c3ccc(F)cc3)[nH]c12,90%
6,CC(=O)c1cc(/C=C/c2ccc(F)cc2)cc2cc(-c3ccc(F)cc3)[nH]c12,72.6%

# Tested on: HeLa
# Assay: Induction of apoptosis in human HeLa cells assessed as DNA fragmentation at 2.5 to 10 uM after 48 hrs by ethidium bromide staining based agarose gel electrophoresis
# Assay type: functional, cell-based
# Settings: not given
row,SMILES,Activity
1,CC(=O)c1cc(/C=C/c2ccc(F)cc2)cc2cc(-c3ccc(F)cc3)[nH]c12,Active

# Tested on: HeLa
# Assay: Induction of apoptosis in human HeLa cells assessed as early apoptotic cells at 2.5 uM after 48 hrs by Annexin V/propidium iodide staining based flow cytometric analysis (reference value: 0.05 +/- 0.07 %)
# Assay type: functional
# Settings: not given
row,SMILES,Activity
1,CC(=O)c1cc(/C=C/c2ccc(F)cc2)cc2cc(-c3ccc(F)cc3)[nH]c12,0.2%

# Tested on: HeLa
# Assay: Induction of apoptosis in human HeLa cells assessed as late apoptotic cells at 5 uM after 48 hrs by Annexin V/propidium iodide staining based flow cytometric analysis (reference value: 31.80 +/- 0.25 %)
# Assay type: functional
# Settings: not given
row,SMILES,Activity
1,CC(=O)c1cc(/C=C/c2ccc(F)cc2)cc2cc(-c3ccc(F)cc3)[nH]c12,44%

# Tested on: MCF7
# Assay: Cytotoxicity against human MCF7 cells assessed as cell viability at 100 uM after 2 days by MTT assay relative to control
# Assay type: functional
# Settings: MCF7, 48 h, read-out: Activity
row,SMILES,viability at 100 µM
1,COc1ccc(-c2cc3cc(-c4ccccc4)cc(C(C)=O)c3[nH]2)cc1,43.5%
2,COc1ccc(-c2cc3cc(-c4ccc(F)cc4)cc(C(C)=O)c3[nH]2)cc1,47%
3,COc1ccc(-c2cc(C(C)=O)c3[nH]c(-c4ccc(F)cc4)cc3c2)cc1,14.8%
4,CC(=O)c1cc(-c2ccccc2)cc2cc(-c3ccc(F)cc3)[nH]c12,73.3%
5,CC(=O)c1cc(-c2ccc(F)cc2)cc2cc(-c3ccc(F)cc3)[nH]c12,20%
6,CC(=O)c1cc(/C=C/c2ccc(F)cc2)cc2cc(-c3ccc(F)cc3)[nH]c12,42.2%

# Tested on: HeLa
# Assay: Cytotoxicity against human HeLa cells assessed as cell viability at 100 uM after 2 days by MTT assay relative to control
# Assay type: functional
# Settings: 48 h, read-out: Activity
row,SMILES,viability at 100 µM
1,COc1ccc(-c2cc3cc(-c4ccccc4)cc(C(C)=O)c3[nH]2)cc1,32.8%
2,COc1ccc(-c2cc3cc(-c4ccc(F)cc4)cc(C(C)=O)c3[nH]2)cc1,46.5%
3,COc1ccc(-c2cc(C(C)=O)c3[nH]c(-c4ccc(F)cc4)cc3c2)cc1,20.6%
4,CC(=O)c1cc(-c2ccccc2)cc2cc(-c3ccc(F)cc3)[nH]c12,68.3%
5,CC(=O)c1cc(-c2ccc(F)cc2)cc2cc(-c3ccc(F)cc3)[nH]c12,9.31%
6,CC(=O)c1cc(/C=C/c2ccc(F)cc2)cc2cc(-c3ccc(F)cc3)[nH]c12,20.3%

# Tested on: HeLa
# Assay: Cytotoxicity against human HeLa cells assessed as cell viability at 10 uM after 2 days by MTT assay relative to control
# Assay type: functional
# Settings: 48 h, read-out: Activity
row,SMILES,viability at 10 µM
1,COc1ccc(-c2cc3cc(-c4ccccc4)cc(C(C)=O)c3[nH]2)cc1,51.6%
2,COc1ccc(-c2cc3cc(-c4ccc(F)cc4)cc(C(C)=O)c3[nH]2)cc1,52%
3,COc1ccc(-c2cc(C(C)=O)c3[nH]c(-c4ccc(F)cc4)cc3c2)cc1,46.5%
4,CC(=O)c1cc(-c2ccccc2)cc2cc(-c3ccc(F)cc3)[nH]c12,76.9%
5,CC(=O)c1cc(-c2ccc(F)cc2)cc2cc(-c3ccc(F)cc3)[nH]c12,47.4%
6,CC(=O)c1cc(/C=C/c2ccc(F)cc2)cc2cc(-c3ccc(F)cc3)[nH]c12,41.9%

# Tested on: HeLa
# Assay: Induction of apoptosis in human HeLa cells assessed as necrotic cells at 5 uM after 48 hrs by Annexin V/propidium iodide staining based flow cytometric analysis (reference value: 21.45 +/- 0.78 %)
# Assay type: functional
# Settings: not given
row,SMILES,Activity
1,CC(=O)c1cc(/C=C/c2ccc(F)cc2)cc2cc(-c3ccc(F)cc3)[nH]c12,20.4%

# Tested on: HeLa
# Assay: Induction of apoptosis in human HeLa cells assessed as viable cells at 5 uM after 48 hrs by Annexin V/propidium iodide staining based flow cytometric analysis (reference value: 46.00 +/- 0.56 %)
# Assay type: functional
# Settings: read-out: Activity
row,SMILES,viability at 5 µM
1,CC(=O)c1cc(/C=C/c2ccc(F)cc2)cc2cc(-c3ccc(F)cc3)[nH]c12,35.5%

# Tested on: MCF7
# Assay: Cytotoxicity against human MCF7 cells assessed as cell viability at 0.1 uM after 2 days by MTT assay relative to control
# Assay type: functional
# Settings: MCF7, 48 h, read-out: Activity
row,SMILES,viability at 0.1 µM
1,COc1ccc(-c2cc3cc(-c4ccccc4)cc(C(C)=O)c3[nH]2)cc1,87%
2,COc1ccc(-c2cc3cc(-c4ccc(F)cc4)cc(C(C)=O)c3[nH]2)cc1,97.3%
3,COc1ccc(-c2cc(C(C)=O)c3[nH]c(-c4ccc(F)cc4)cc3c2)cc1,88.4%
4,CC(=O)c1cc(-c2ccccc2)cc2cc(-c3ccc(F)cc3)[nH]c12,98.5%
5,CC(=O)c1cc(-c2ccc(F)cc2)cc2cc(-c3ccc(F)cc3)[nH]c12,99.8%
6,CC(=O)c1cc(/C=C/c2ccc(F)cc2)cc2cc(-c3ccc(F)cc3)[nH]c12,98.8%

# Tested on: HeLa
# Assay: Induction of apoptosis in human HeLa cells assessed as early apoptotic cells at 10 uM after 48 hrs by Annexin V/propidium iodide staining based flow cytometric analysis (reference value: 0.05 +/- 0.07 %)
# Assay type: functional
# Settings: not given
row,SMILES,Activity
1,CC(=O)c1cc(/C=C/c2ccc(F)cc2)cc2cc(-c3ccc(F)cc3)[nH]c12,0.35%

# Tested on: HeLa
# Assay: Induction of apoptosis in human HeLa cells assessed as late apoptotic cells at 10 uM after 48 hrs by Annexin V/propidium iodide staining based flow cytometric analysis (reference value: 31.80 +/- 0.25 %)
# Assay type: functional
# Settings: not given
row,SMILES,Activity
1,CC(=O)c1cc(/C=C/c2ccc(F)cc2)cc2cc(-c3ccc(F)cc3)[nH]c12,13.4%

# Tested on: HeLa
# Assay: Cytotoxicity against human HeLa cells assessed as cell viability at 1 uM after 2 days by MTT assay relative to control
# Assay type: functional
# Settings: 48 h, read-out: Activity
row,SMILES,viability at 1 µM
1,COc1ccc(-c2cc3cc(-c4ccccc4)cc(C(C)=O)c3[nH]2)cc1,61.5%
2,COc1ccc(-c2cc3cc(-c4ccc(F)cc4)cc(C(C)=O)c3[nH]2)cc1,62.9%
3,COc1ccc(-c2cc(C(C)=O)c3[nH]c(-c4ccc(F)cc4)cc3c2)cc1,56.1%
4,CC(=O)c1cc(-c2ccccc2)cc2cc(-c3ccc(F)cc3)[nH]c12,85.1%
5,CC(=O)c1cc(-c2ccc(F)cc2)cc2cc(-c3ccc(F)cc3)[nH]c12,71.6%
6,CC(=O)c1cc(/C=C/c2ccc(F)cc2)cc2cc(-c3ccc(F)cc3)[nH]c12,53.7%

# Tested on: HeLa
# Assay: Induction of apoptosis in human HeLa cells assessed as necrotic cells at 2.5 uM after 48 hrs by Annexin V/propidium iodide staining based flow cytometric analysis (reference value: 21.45 +/- 0.78 %)
# Assay type: functional
# Settings: not given
row,SMILES,Activity
1,CC(=O)c1cc(/C=C/c2ccc(F)cc2)cc2cc(-c3ccc(F)cc3)[nH]c12,14.35%

# Tested on: HeLa
# Assay: Induction of apoptosis in human HeLa cells assessed as caspase 3 activation at 2.5 to 10 uM after 24 hrs by colorimetric analysis
# Assay type: functional
# Settings: not given
row,SMILES,fold change (FC)
1,CC(=O)c1cc(/C=C/c2ccc(F)cc2)cc2cc(-c3ccc(F)cc3)[nH]c12,3

# Tested on: HeLa
# Assay: Induction of apoptosis in human HeLa cells assessed as viable cells at 10 uM after 48 hrs by Annexin V/propidium iodide staining based flow cytometric analysis (reference value: 46.00 +/- 0.56 %)
# Assay type: functional
# Settings: read-out: Activity
row,SMILES,viability at 10 µM
1,CC(=O)c1cc(/C=C/c2ccc(F)cc2)cc2cc(-c3ccc(F)cc3)[nH]c12,22.4%
